Source: ChEMBL document CHEMBL1909046, “DrugMatrix in vitro pharmacology data”

Assays:
[1] = target: Substance-P receptor (Homo sapiens, UniProt P25103); type: cell membranes, Membrane; settings: cho; note: in other assays of this panel Not Active means under 50% inhibition at 10 µM
[2] = target: Sodium-dependent dopamine transporter (Homo sapiens, UniProt Q01959); experiment: DRUGMATRIX: Dopamine Transporter radioligand binding (ligand: [125I] RTI-55); type: cell membranes, CHO-K1, Membrane; settings: Not Active = under 50% inhibition at 10 µM; for Ki: read-out: Ki
[3] = DRUGMATRIX: Glutamate, AMPA radioligand binding (ligand: [3H] AMPA); type: cell membranes, Rattus norvegicus, Wistar, Cerebral cortex, Membrane; settings: Not Active = under 50% inhibition at 10 µM
[4] = target: Beta-2 adrenergic receptor (Homo sapiens, UniProt P07550); experiment: DRUGMATRIX: Adrenergic beta2 radioligand binding (ligand: [3H] CGP-12177); type: cell membranes, CHO, Membrane; settings: Not Active = under 50% inhibition at 10 µM
[5] = target: Prostaglandin G/H synthase 1 (Homo sapiens, UniProt P23219); experiment: biochemical; type: tissue-based, Platelet;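 note: inhibition of COX-1 enzyme activity, with arachidonic acid supplied as substrate; in other assays of this panel Not Active means under 50% inhibition at 10 µM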
[6] = target: D(3) dopamine receptor (Homo sapiens, UniProt P35462); experiment: DRUGMATRIX: Dopamine D3 radioligand binding (ligand: [3H] Spiperone); type: cell membranes, CHO, Membrane; settings: for Ki: read-out: Ki
D(3) dopamine receptor, sequence (P35462 whole entry): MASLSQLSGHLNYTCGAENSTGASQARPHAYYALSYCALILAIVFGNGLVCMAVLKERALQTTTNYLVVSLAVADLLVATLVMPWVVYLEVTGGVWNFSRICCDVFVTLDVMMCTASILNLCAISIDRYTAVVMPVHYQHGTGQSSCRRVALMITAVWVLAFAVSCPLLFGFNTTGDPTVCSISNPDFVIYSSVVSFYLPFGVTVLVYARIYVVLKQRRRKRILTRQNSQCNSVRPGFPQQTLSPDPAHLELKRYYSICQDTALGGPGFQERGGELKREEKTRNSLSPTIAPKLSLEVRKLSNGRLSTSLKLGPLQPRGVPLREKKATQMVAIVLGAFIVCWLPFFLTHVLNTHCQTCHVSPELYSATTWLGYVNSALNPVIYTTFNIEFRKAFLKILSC

Substance-P receptor, sequence (P25103 whole entry): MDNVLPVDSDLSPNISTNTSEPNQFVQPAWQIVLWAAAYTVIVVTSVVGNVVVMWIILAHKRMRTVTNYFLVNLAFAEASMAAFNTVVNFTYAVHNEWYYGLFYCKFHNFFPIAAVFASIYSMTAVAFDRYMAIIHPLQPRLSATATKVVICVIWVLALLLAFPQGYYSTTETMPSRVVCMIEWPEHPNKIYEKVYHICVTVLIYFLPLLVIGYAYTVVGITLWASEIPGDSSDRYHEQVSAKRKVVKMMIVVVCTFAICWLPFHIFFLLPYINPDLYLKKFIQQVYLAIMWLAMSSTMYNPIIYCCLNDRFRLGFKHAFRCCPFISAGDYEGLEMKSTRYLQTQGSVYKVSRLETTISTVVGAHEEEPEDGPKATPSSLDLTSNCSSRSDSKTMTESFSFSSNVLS
Prostaglandin G/H synthase 1, sequence (P23219 whole entry): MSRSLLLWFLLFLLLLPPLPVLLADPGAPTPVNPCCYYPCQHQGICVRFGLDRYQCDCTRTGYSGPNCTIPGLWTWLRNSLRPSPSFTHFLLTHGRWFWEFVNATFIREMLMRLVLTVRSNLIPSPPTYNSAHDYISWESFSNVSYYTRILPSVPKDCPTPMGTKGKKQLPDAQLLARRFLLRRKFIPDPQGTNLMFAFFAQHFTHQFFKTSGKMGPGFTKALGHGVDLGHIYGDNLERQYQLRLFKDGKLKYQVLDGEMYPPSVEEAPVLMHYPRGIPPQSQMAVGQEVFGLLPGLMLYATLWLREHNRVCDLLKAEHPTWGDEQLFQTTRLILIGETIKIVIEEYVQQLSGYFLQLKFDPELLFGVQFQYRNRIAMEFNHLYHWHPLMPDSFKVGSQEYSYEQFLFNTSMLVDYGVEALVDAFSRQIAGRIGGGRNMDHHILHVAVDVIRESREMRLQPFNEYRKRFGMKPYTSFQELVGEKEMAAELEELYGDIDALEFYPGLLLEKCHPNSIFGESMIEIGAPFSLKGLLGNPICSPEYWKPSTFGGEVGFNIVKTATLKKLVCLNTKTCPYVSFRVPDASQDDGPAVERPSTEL
Sodium-dependent dopamine transporter, sequence (Q01959 whole entry): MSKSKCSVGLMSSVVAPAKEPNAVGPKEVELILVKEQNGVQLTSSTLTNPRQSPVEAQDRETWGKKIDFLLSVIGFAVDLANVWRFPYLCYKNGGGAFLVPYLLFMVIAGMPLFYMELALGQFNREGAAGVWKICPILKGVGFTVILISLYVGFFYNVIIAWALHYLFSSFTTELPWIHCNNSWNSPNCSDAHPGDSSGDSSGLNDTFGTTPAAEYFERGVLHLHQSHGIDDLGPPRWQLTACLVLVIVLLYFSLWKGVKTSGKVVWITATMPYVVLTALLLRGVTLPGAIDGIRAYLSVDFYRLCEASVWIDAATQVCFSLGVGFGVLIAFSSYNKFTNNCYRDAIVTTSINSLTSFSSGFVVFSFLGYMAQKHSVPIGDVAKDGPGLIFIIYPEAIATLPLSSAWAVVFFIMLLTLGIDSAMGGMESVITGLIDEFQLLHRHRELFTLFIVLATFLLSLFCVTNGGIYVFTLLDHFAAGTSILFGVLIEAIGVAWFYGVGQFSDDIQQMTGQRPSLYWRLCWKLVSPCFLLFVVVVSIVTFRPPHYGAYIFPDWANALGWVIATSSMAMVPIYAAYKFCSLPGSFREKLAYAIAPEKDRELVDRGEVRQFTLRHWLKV
Beta-2 adrenergic receptor, sequence (P07550 whole entry): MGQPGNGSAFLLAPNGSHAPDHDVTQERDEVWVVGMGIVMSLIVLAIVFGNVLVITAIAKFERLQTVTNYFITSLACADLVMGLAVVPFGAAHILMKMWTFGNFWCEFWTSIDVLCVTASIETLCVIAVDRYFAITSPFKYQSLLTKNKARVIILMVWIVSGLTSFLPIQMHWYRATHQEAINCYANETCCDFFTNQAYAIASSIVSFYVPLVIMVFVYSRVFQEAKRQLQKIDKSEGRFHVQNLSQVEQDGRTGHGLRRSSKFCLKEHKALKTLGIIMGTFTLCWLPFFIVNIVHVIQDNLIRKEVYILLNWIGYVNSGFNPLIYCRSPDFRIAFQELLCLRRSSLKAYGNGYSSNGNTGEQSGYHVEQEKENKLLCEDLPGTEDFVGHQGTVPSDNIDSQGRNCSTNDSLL

SMILES	IC50 [1]	IC50 ([2]; read-out: IC50) [µM]	Ki [2] [nM]	IC50 [3]	Ki [3]	IC50 ([4]; cho)	IC50 ([5]; platelet)	IC50 ([6]; read-out: IC50) [µM]	Ki [6] [nM]	IC50 ([2]; cho-k1)	IC50 ([6]; cho)	IC50 ([4]; read-out: IC50) [nM]	Ki ([4]; read-out: Ki) [nM]	IC50 ([5]; read-out: IC50) [nM]
C#C[C@]1(O)CC[C@H]2[C@@H]3CCC4=Cc5oncc5C[C@]4(C)[C@H]3CC[C@@]21C [DANAZOL]	Not Active	6.84	5440	Not Active	Not Active	Not Active	Not Active	28.9	9800					
CCN[C@@H](C)Cc1cccc(C(F)(F)F)c1 [DEXFENFLURAMINE]	Not Active			Not Active	Not Active	Not Active	Not Active			Not Active	Not Active			
CN1C(=O)CN=C(c2ccccc2)c2cc(Cl)ccc21 [DIAZEPAM]	Not Active			Not Active	Not Active	Not Active	Not Active			Not Active	Not Active			
CN1C[C@H](C(=O)N[C@]2(C)O[C@@]3(O)[C@@H]4CCCN4C(=O)[C@H](Cc4ccccc4)N3C2=O)C[C@@H]2c3cccc4[nH]cc(c34)C[C@H]21 [DIHYDROERGOTAMINE]	Not Active			Not Active	Not Active	Not Active	Not Active	0.00534	1.81	Not Active				
Cc1c(N(C)CS(=O)(=O)[O-])c(=O)n(-c2ccccc2)n1C.[Na+] [DIPYRONE SODIUM]	Not Active			Not Active	Not Active	Not Active	Not Active			Not Active	Not Active			
CC(CCc1ccc(O)cc1)NCCc1ccc(O)c(O)c1 (stereo not given) [DOBUTAMINE]	Not Active	0.155	123	Not Active	Not Active		Not Active	4.99	1690			1520	1040	
CCn1cc(C(=O)O)c(=O)c2cc(F)c(N3CCNCC3)nc21 [ENOXACIN]	Not Active			Not Active	Not Active	Not Active	Not Active			Not Active	Not Active			
CCC(=O)O[C@H]1[C@H](O[C@@H]2[C@@H](C)[C@H](O[C@H]3C[C@@](C)(OC)[C@@H](O)[C@H](C)O3)[C@@H](C)C(=O)O[C@H](CC)[C@@](C)(O)[C@H](O)[C@@H](C)C(=O)[C@H](C)C[C@@]2(C)O)O[C@H](C)C[C@@H]1N(C)C [ERYTHROMYCIN PROPIONATE]	Not Active			Not Active	Not Active	Not Active	Not Active			Not Active	Not Active			
C=C(CC)C(=O)c1ccc(OCC(=O)O)c(Cl)c1Cl [ETHACRYNIC ACID]	Not Active			Not Active	Not Active	Not Active	Not Active			Not Active	Not Active			
C#C[C@]1(O)CC[C@H]2[C@@H]3CCc4cc(O)ccc4[C@H]3CC[C@@]21C [ETHINYL ESTRADIOL]	Not Active	0.559	444	Not Active	Not Active	Not Active	Not Active				Not Active			
OCCO [ETHYLENE GLYCOL]	Not Active			Not Active	Not Active	Not Active	Not Active			Not Active	Not Active			
CC(=O)OCC(CCn1cnc2cnc(N)nc21)COC(C)=O [FAMCICLOVIR]	Not Active			Not Active	Not Active	Not Active	Not Active			Not Active	Not Active			
O=C(O)Cc1ccc(-c2ccccc2)cc1 [FELBINAC]	Not Active			Not Active	Not Active	Not Active				Not Active	Not Active			894
CCOC(=O)C1=C(C)NC(C)=C(C(=O)OC)C1c1cccc(Cl)c1Cl (stereo not given) [FELODIPINE]	Not Active			Not Active	Not Active	Not Active	Not Active			Not Active	Not Active			
Cc1cn[nH]c1 [FOMEPIZOLE]	Not Active			Not Active	Not Active	Not Active	Not Active			Not Active	Not Active			
NC[C@@H]1O[C@H](O[C@H]2[C@@H](O)[C@H](O[C@@H]3[C@@H](O)[C@H](N)C[C@H](N)[C@H]3O[C@H]3O[C@H](CN)[C@@H](O)[C@H](O)[C@H]3N)O[C@@H]2CO)[C@H](N)[C@@H](O)[C@@H]1O [FRAMYCETIN]	Not Active			Not Active	Not Active	Not Active	Not Active			Not Active	Not Active			
C[C@H]([C@](O)(Cn1cncn1)c1ccc(F)cc1F)S(C)(=O)=O [GENACONAZOLE]	Not Active			Not Active	Not Active	Not Active	Not Active			Not Active	Not Active			
Cc1cnc(C(=O)NCCc2ccc(S(=O)(=O)NC(=O)NC3CCCCC3)cc2)cn1 [GLIPIZIDE]	Not Active			Not Active	Not Active	Not Active	Not Active			Not Active	Not Active			
Cc1c(F)c(N2CCNC(C)C2)cc2c1c(=O)c(C(=O)O)cn2C1CC1 (stereo not given) [GREPAFLOXACIN]	Not Active			Not Active	Not Active	Not Active	Not Active			Not Active	Not Active			
COc1ccccc1OCC(O)CO (stereo not given) [GUAIFENESIN]	Not Active			Not Active	Not Active	Not Active	Not Active			Not Active	Not Active			
N=C(N)N/N=C/c1c(Cl)cccc1Cl [GUANABENZ]	Not Active			Not Active	Not Active	Not Active	Not Active			Not Active	Not Active			
C[C@]12CCC(=O)C=C1CC[C@@H]1[C@@H]2[C@@H](O)C[C@@]2(C)[C@H]1CC[C@]2(O)C(=O)CO [HYDROCORTISONE]	Not Active			Not Active	Not Active	Not Active	Not Active			Not Active	Not Active			
C/C=C\c1ccc(O)c(OC)c1 [ISOEUGENOL]	Not Active			Not Active	Not Active	Not Active	Not Active			Not Active	Not Active			
NC[C@H]1O[C@H](O[C@H]2[C@H](O)[C@@H](O[C@H]3O[C@H](CO)[C@@H](O)[C@H](N)[C@H]3O)[C@H](N)C[C@@H]2N)[C@H](O)[C@@H](O)[C@@H]1O [KANAMYCIN]	Not Active			Not Active	Not Active	Not Active	Not Active			Not Active	Not Active			
CC[C@H](C)C(=O)O[C@H]1C[C@@H](C)C=C2C=C[C@H](C)[C@H](CC[C@@H]3C[C@@H](O)CC(=O)O3)[C@H]21 [LOVASTATIN]	Not Active	10.1	8030	Not Active	Not Active	Not Active	Not Active				Not Active			
CC(C(=O)O)c1ccc(CC2CCCC2=O)cc1 (stereo not given) [LOXOPROFEN]	Not Active			Not Active	Not Active	Not Active	Not Active			Not Active	Not Active			
